Reference: paper PMC7822874, “Chemoprotective antimalarials identified through quantitative high-throughput screening of Plasmodium blood and liver stage parasites” (Scientific Reports, 2021)
Where two headings read alike, the source gives them in different places.

Legend:
[1] = test system: HepG2-A16-CD81EGFP cells; conditions: averaged response (percent)
[2] = test system: P. falciparum Dd2 (clone B2) asexual blood stage parasites; assay: P. falciparum Dd2 asexual blood stage SYBR Green-I 72 h proliferation assay (qHTS); assay type: cell-based, Plasmodium falciparum; conditions: averaged P. falciparum asexual blood stage potency, log10 of AC50 in M
[3] = test system: P. berghei-ANKA-GFP-LucCON liver stage parasites in HepG2-A16-CD81EGFP cells; assay: P. berghei liver stage Pb-Luc assay, Method 1 (UCSD, 1536-well); assay type: cell-based, Plasmodium berghei; conditions: P. berghei liver stage, averaged response (percent); for Average P. berghei 1 µM response (%): the header list (r8) defines it as the 1 µM dose
[4] = HepG2, the header list (r10) describes it as the 1 µM dose

Structure (SMILES)	Average HepG2 3 µM response( %) ([1]; HepG2, 3 µM dose) [%]	Average HepG2 3 µM response( %) [1, 4] [%]	Pf ABS Log AC50 (M) [2] [M]	Average P. berghei 3 µM response( %) [3] [%]	Average P. berghei 1 µM response (%) [3] [%]
COc1ccc(N2CCN(c3cc(C4CC(N)C4)nc(N)n3)CC2(C)C)cc1 (centres unmarked) [NCGC00422579]	100	102	-5.525	82	91
COc1ccc(-c2nc3sc(CCNC(=O)c4ccc(C(C)(C)C)cc4)c(C)n3n2)cc1 [NCGC00137079]	98	98	-5.675	84	132
COc1ccc(-c2noc(-c3cccn3CC(=O)Nc3ccccc3)n2)cc1F [NCGC00445500]	104	101	-5.625	183	170
COc1ccccc1NC(=O)CN1CCN(C(=O)c2ccco2)CC1 [MLS000122729]	102	102	-5.462	65	115
Cc1cc(Oc2c(C(F)(F)F)oc3c(CN4CCC(C)CC4)c(O)ccc3c2=O)cc(C)c1Cl [NCGC00101140]	111	110	-6.125	71	85
COc1ccc(C(CCN2CCCCC2)c2c(O)cc(OC)cc2OC)cc1 (centres unmarked) [MLS000879486]	88	92	-5.962	88	105
CN(CC(=O)Nc1cccc(F)c1)C(=O)c1ccc(-c2cccc(C(F)(F)F)c2)o1 [MLS001139679]	100	103	-6.362	89	141
CCN(CC)CCn1c(=N)n(CC(O)COc2ccccc2C)c2ccccc21 (centres unmarked) [NCGC00101835]	100	104	-5.475	72	117
Oc1cc2c(cc1CN1CCN(c3ccccc3)CC1)CCC2 [MLS000058156]	101	102	-5.587	107	92
Oc1ccc(C2NCc3ccccc3-n3cccc32)cc1Cl (centres unmarked) [MLS000878874]	105	105	-5.925	82	96
COc1cccc(OC)c1C(=O)NC(S)=Nc1ccc2c(c1)C(=O)N(C)C2=O [MLS000331897]	104	104	-6.025	113	122
Cc1ccc(/C=N/NC(=O)c2cc3ccccc3cc2O)o1 [MLS001219838]	98	98	-5.275	6.47	18
CCOC(=O)N1CCc2c(sc3nc4n(c(=O)c23)N=C(c2ccc(OC)cc2)CS4)C1 [MLS000859689]	98	100	-5.012	87	113
CCC(CC)c1cc([C@H]2CN3CC[C@H]2C[C@@H]3CNC(C)=O)nc(-c2ccncc2)n1 [NCGC00394634]	106	107	-4.814	53	49
O=C(/C=C/c1ccco1)NC(=S)Nc1ccccc1N1CCCC1 [MLS000663784]	105	105	-5.575	104	113
Cc1ccc(O)c([C@H](CCN(C(C)C)C(C)C)c2ccccc2)c1 [NCGC00159519]	104	100	-5.437	83	97
CCOc1ccccc1CN1CCC2(CCN(CCC(C)C)CC2)Oc2ccccc21 [NCGC00478188]	105	100	-5.475	48	106

Structure (SMILES)	Average HepG2 3 µM response( %) ([1]; HepG2, 3 µM dose) [%]	Average HepG2 3 µM response( %) [1, 4] [%]	Pf ABS Log AC50 (M) [2] [M]	Average P. berghei 3 µM response( %) [3] [%]	Average P. berghei 1 µM response (%) [3] [%]
COc1ccc(-c2c3c(nc4sc(C(=O)Nc5ccc(Cl)cc5)c(N)c24)CC(C)(C)CC3=O)cc1 [NCGC00100738]	109	104	-6.425	90	111
c1ccc(CNc2nc(-c3ccccn3)nc3ccccc23)cc1 [MLS001165148]	87	96	-5.662	8	72
COc1ccc(C2=C(Nc3ccc(C)cc3)c3ccccc3C2=O)cc1 [MLS000563980]	89	94	-5.637	25	81
CCOc1ccc(Nc2nc(NCC3CCCO3)c3ccccc3n2)cc1 (centres unmarked) [MLS000724397]	84	102	-5.737	10	59
O=C(c1ccc([N+](=O)[O-])o1)N1CCN(c2nc3c(F)cc(F)cc3s2)CC1 [MLS001234228]	107	103	-5.462	65	77
N=c1c2c(n(Cc3ccccc3)c3c1CCC3)CCC2 [MLS000080128]	74	94	-5.712	16	14
Cc1ccc2[nH]c(C(=O)Nc3ccc(F)cc3)cc2c1 [MLS001183414]	100	100	-4.837	91	92
CCOC(=O)Cn1c2c(c(=N)c3c1CCC3)CCCC2 [MLS000702567]	104	104	-4.912	104	95
CCOCCCNc1nc2cc(OC)c(OC)cc2c2nc(-c3ccccc3)nn12 [NCGC00112857]	99	97	-6.675	104	109
CCOC(=O)c1c[nH]c2c(C)cc(C)cc2c1=O [MLS000530578]	102	102	-5.437	9.48	49
c1cc(Nc2ncnc3sc4c(c23)CCC4)ccn1 [MLS000681348]	103	103	-5.462	95	92
CCOC(=O)C1=C(C)N=c2s/c(=C/c3ccc(OCC(=O)O)cc3)c(=O)n2C1c1cc(OC)c(OC)c(OC)c1 (centres unmarked) [MLS001178475]	99	99	-5.737	74	98
Cn1ccc(NCc2nnc(C(=O)N3CCC[C@@H]3C(c3ccccc3)c3ccccc3)n2-c2ccccc2)n1 [NCGC00415774]	99	96	-5.875	89	95
CC(C)OCCCNc1sc([S+](=O)([O-])c2ccccc2)nc1[S+](=O)([O-])c1ccc(Cl)cc1 [NCGC00116822]	94	93	-6.575	76	75
Cc1ccccc1NC(=O)Nc1ccc2nc(N3CCN(C)CC3)cc(C)c2c1 [NCGC00126513]	106	104	-5.825	104	110
O=S1(=O)N(CCN2CC=C(c3c[nH]c4cc(F)ccc34)CC2)c2cccc3c2N1CCC3 [MLS002172448]	80	88	-6.050	60	78
CN(C)c1cc[n+](CC(=O)c2cccs2)cc1 [MLS001207444]	101	101	-5.387	62	89
